Laboratory results as given in patent US8623196B2 (priority 2007, dated 2014).
Values joined by “and” are separate entries in the source; they are usually repeats but may differ in a detail not shown here. Equal values may be shown once.

How the values were obtained:
Alkaline phosphatase = test: Bi-enzyme electrode of tyrosinase and alkaline phosphatase: current response to substrate; assay type: biochemical; settings: Table 1-2 lower part
tyrosinase [1] = assay type: biochemical; settings: for Average sensitivity (control experiments): PLL-Tyr bilayers without an esterase layer
[2] = target: NEST (recombinant esterase domain of NTE) (Homo sapiens, UniProt Q8IY17); assay type: biochemical
tyrosinase [3] = target: tyrosinase (Agaricus bisporus, UniProt C7FF04); settings: read-out: apparent Michaelis constant Km^app; cited from earlier work
tyrosinase [4] = assay type: biochemical; settings: NEST biosensor, 0.1 M phosphate buffer pH 7.0, −0.1 V
acetylcholinesterase = test: Bi-enzyme electrode of tyrosinase and acetylcholinesterase: current response to substrate; assay type: biochemical; settings: for Average sensitivity: tyrosinase/acetylcholinesterase electrode
NEST = target: T1, NEST (Homo sapiens, UniProt Q8IY17); test: NEST biosensor: amperometric response to phenyl valerate; assay type: biochemical; settings: for Average sensitivity: tyrosinase/NEST electrode
T1 construct: recombinant esterase domain of NTE (NEST) of the present invention comprising amino acid residues 727-1216 of NTE; histidine tag; made in house; host or cells: E. coli BL21(DE3), pET-21b vector
T1 sequence (Q8IY17 775-1264): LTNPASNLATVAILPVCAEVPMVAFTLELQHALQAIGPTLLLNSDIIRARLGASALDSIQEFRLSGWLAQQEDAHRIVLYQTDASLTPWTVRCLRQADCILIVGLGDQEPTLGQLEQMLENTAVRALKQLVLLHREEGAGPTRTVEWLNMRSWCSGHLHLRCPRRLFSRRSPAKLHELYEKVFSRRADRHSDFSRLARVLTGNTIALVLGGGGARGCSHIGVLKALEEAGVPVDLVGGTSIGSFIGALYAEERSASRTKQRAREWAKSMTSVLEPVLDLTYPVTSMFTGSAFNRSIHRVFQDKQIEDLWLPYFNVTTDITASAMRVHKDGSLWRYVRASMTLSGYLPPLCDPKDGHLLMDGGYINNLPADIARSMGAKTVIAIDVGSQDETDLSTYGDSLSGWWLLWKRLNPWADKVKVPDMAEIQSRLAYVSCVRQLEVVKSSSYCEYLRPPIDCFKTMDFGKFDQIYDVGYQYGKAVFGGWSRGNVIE

butyrylcholinesterase = test: Bi-enzyme electrode of tyrosinase and butyrylcholinesterase: current response to substrate; assay type: biochemical

tyrosinase (Agaricus bisporus, UniProt C7FF04), sequence (C7FF04 1-392): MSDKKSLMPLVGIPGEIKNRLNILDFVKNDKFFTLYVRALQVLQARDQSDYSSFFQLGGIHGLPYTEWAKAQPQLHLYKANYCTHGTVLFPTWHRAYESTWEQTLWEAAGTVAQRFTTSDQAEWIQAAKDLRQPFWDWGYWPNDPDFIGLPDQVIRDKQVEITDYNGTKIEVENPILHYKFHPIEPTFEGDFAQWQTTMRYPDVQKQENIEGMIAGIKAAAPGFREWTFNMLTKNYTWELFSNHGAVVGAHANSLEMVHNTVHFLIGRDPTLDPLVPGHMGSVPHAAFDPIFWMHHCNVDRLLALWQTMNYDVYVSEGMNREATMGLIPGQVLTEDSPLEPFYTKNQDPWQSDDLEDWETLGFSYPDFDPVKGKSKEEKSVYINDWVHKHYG

With O=P(O)(O)Oc1ccccc1 [Phenyl phosphate] the Average sensitivity (Alkaline phosphatase) was 236 ± 10 nAμM^−1cm^−2 and the “Average sensitivity (control experiments)” value (tyrosinase [1]) was 0.3 nAμM^−1cm^−2.

For O=S(=O)(F)Cc1ccccc1 [PMSF, phenylmethylsulfonyl fluoride], the “drop in current after addition of NEST inhibitor (dose dependence)” value [2] was “dose-dependent response”.

For Oc1ccccc1O [catechol], the Km (tyrosinase [3]) is given as ~220 µM and the sensitivity (tyrosinase [4]) is given as 2.5±0.1 μAμM^−1 cm^−2.

In the case of Oc1ccccc1 [phenol], the Km (tyrosinase [3]) is listed as ~250 µM and the Average sensitivity (tyrosinase [4]) is listed as ~410±30 nAμM^−1 cm^−2.

In the case of CCCCC(=O)Oc1ccccc1 [Phenyl valerate, phenyl valerate], the “rise in current with substrate” value (acetylcholinesterase; used as substrate instead of phenyl acetate) is reported as “no significant rise in current”, the “concentration at which response reached saturation” value (NEST; 0.1 M phosphate buffer, pH 7.0, −0.1 V vs Ag/AgCl) is reported as “approximately 30 μM” and the Average sensitivity (NEST; Table 1-2 lower part) is reported as 88 ± 6 nAμM^−1cm^−2. For the same compound, the Average sensitivity (NEST; Table 1-2 upper part) was 87 ± 8 nAμM^−1cm^−2, the mean current (NEST; phenyl valerate 4 μM, n=10 electrodes) was “approximately 348 nA cm^−2” and the limit of detection (NEST; signal-to-noise ratio of three) was 0.5 µM. For the same compound, the Average sensitivity (butyrylcholinesterase; Table 1-2 lower part) was 70 ± 5 nAμM^−1cm^−2, the Average sensitivity (butyrylcholinesterase; Table 1-2 upper part) was 25 ± 10 nAμM^−1cm^−2 and the “Average sensitivity (control experiments)” value (tyrosinase [1]) was 0.5 nAμM^−1cm^−2 and 0.3 nAμM^−1cm^−2. For the same compound, the “rise in steady state current on addition of substrate” value (tyrosinase [1]; electrode with poly-L-lysine and tyrosinase bilayers without NEST) was “relatively very small rise in steady state current”.

In the case of CC(=O)Oc1ccccc1 [Phenyl acetate, phenyl acetate], the Average sensitivity (acetylcholinesterase; Table 1-2 lower part) is reported as 180 ± 8 nAμM^−1cm^−2, the Average sensitivity (acetylcholinesterase; Table 1-2 upper part) is reported as 180 ± 25 nAμM^−1cm^−2 and the “Average sensitivity (control experiments)” value (tyrosinase [1]) is reported as 0.4 nAμM^−1cm^−2.
